According to article PMC7948982, “Dissecting the low catalytic capability of flavin-dependent halogenases” (The Journal of Biological Chemistry, 2020):

Columns and labels:
[1] = target: T1, Thal (tryptophan 6-halogenase) (Streptomyces albogriseolus, UniProt A1E280); assay: X-ray crystal structure, […] Å; type: binding; conditions: apo crystals soaked with FAD and Trp for 7 days, 25 °C
T1 construct: recombinant, E. coli BL21(DE3), pET28b; tag residues seen in 7CU1; two protomers per asymmetric unit; GFP11 C-terminal tag only in the mutant library screen
T1 sequence (A1E280 whole entry): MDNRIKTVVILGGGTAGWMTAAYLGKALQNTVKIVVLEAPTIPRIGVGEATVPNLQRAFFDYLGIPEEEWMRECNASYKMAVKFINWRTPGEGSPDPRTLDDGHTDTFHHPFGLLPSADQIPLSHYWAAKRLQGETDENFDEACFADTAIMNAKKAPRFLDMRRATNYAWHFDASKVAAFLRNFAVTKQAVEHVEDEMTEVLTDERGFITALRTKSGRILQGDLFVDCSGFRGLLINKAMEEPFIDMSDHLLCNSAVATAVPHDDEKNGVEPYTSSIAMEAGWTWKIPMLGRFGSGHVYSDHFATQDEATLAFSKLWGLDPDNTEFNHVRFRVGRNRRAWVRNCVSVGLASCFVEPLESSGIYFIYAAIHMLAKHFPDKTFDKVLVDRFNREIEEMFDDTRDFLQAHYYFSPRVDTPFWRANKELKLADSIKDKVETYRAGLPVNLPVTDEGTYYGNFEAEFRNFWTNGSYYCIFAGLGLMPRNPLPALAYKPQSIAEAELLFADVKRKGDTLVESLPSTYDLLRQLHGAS

[2] = target: T1, Thal (tryptophan 6-halogenase); assay: X-ray crystal structure, […] Å; type: binding; conditions: crystal soak with FAD, tryptophan and dithionite; flavin site
[3] = target: T2, Thal (tryptophan 6-halogenase) (Streptomyces albogriseolus, UniProt A1E280, K79T); assay: stopped-flow absorbance at […] and […] nm, C4a-hydroperoxyflavin formation; type: biochemical; conditions: 30 μM enzyme, 15 μM FADH-, air-saturated buffer; 20 mM potassium phosphate pH 7.2, 25 °C
T2 construct: recombinant, E. coli BL21(DE3), pET28b; tag residues seen in 7CU1; two protomers per asymmetric unit; GFP11 C-terminal tag only in the mutant library screen
T2 sequence (A1E280 whole entry K79T): as the sequence (A1E280 whole entry) above, with K79T counted along it

[4] = target: T3, PyrH (tryptophan 5-halogenase) (Streptomyces rugosporus, UniProt A4D0H5); assay: stopped-flow fluorescence, C4a-hydroxyflavin formation; type: biochemical; conditions: with C4a-hydroperoxyflavin enzyme; pH 7.2, 25 °C
T3 construct: construct and source details not given
T3 sequence (A4D0H5 whole entry): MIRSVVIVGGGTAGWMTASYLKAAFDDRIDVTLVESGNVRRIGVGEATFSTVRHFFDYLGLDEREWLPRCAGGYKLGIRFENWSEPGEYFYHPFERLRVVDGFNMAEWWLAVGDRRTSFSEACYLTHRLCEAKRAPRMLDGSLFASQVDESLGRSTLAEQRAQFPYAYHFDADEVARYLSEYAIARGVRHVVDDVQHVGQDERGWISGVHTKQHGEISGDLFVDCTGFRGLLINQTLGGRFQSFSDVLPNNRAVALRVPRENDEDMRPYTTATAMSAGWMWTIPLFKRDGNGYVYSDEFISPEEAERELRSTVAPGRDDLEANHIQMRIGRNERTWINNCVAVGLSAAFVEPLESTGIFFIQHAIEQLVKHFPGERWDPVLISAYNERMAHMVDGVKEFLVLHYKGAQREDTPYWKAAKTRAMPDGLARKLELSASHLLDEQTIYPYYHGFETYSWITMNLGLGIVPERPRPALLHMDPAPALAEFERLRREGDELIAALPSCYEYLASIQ

[5] = target: T4, PrnA (tryptophan 7-halogenase) (Pseudomonas fluorescens, UniProt P95480); assay: as above; type: biochemical; conditions: with C4a-hydroperoxyflavin enzyme; pH 7.2, 25 °C
T4 construct: construct and source details not given
T4 sequence (P95480 whole entry): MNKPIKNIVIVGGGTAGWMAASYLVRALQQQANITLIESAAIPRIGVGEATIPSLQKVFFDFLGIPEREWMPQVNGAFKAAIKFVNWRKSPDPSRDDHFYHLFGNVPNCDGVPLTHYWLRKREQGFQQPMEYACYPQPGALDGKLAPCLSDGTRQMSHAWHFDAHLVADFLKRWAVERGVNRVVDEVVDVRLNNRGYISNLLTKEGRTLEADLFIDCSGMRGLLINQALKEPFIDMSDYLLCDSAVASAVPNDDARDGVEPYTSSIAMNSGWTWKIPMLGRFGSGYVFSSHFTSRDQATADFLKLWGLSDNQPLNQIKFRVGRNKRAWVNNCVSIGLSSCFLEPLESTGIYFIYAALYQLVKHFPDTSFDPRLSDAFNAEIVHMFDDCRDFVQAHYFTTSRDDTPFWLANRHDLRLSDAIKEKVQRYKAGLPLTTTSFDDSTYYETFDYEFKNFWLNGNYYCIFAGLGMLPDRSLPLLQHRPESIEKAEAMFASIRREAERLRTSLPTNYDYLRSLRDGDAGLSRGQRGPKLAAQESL

[6] = target: T1, Thal (tryptophan 6-halogenase); assay: stopped-flow fluorescence, kobs of C4a-hydroxyflavin formation versus halide; type: biochemical; conditions: binding to the C4a-hydroperoxyflavin form of the enzyme; two-step model; 20 mM potassium phosphate pH 7.2, 25 °C
From the text: stopped-flow fluorescence, kobs of C4a-hydroxyflavin formation versus halide on Thal (tryptophan 6-halogenase)

[7] = target: T1, Thal (tryptophan 6-halogenase); assay: X-ray crystal structure, […] Å; type: binding; conditions: apo crystals soaked, 2 days, 25 °C; tryptophan site
[8] = target: T5, (Pseudomonas fluorescens, UniProt P95480); assay: multiple turnover halogenation; type: biochemical
T5 construct: gene prnA; construct and source details not given
T5 sequence (P95480 whole entry): as above

For `Nc1ncnc2c1ncn2[C@@H]1O[C@H](COP(=O)(O)O)[C@@H](O)[C@H]1O` [AMP], the “X-ray crystal structure, 1.91 Å” value ([1]; flavin site crystal, AMP not added to the soak) was “Thal:FAD:AMP (PDB code 7CU1) were solved with two protomers per asymmetric unit (asu)”.
For `Cc1cc2c(cc1C)N(C[C@H](O)[C@H](O)[C@H](O)COP(=O)(O)OP(=O)(O)OC[C@H]1O[C@@H](n3cnc4c(N)ncnc43)[C@H](O)[C@@H]1O)c1[nH]c(=O)[nH]c(=O)c1N2` [FADH^−], the “X-ray crystal structure, 2.40 Å” value [2] was “Clear electron density for FADH^− was observed in both protomers” and the “stopped-flow absorbance at 380 and 450 nm, C4a-hydroperoxyflavin formation” value [3] was “These data indicate that Lys79Thr could still form C4aOOH-FAD”.
For `Cc1cc2nc3c(=O)[nH]c(=O)nc-3n(C[C@H](O)[C@H](O)[C@H](O)COP(=O)(O)OP(=O)(O)OC[C@H]3O[C@@H](n4cnc5c(N)ncnc54)[C@H](O)[C@@H]3O)c2cc1C` [FAD], the “X-ray crystal structure, 1.91 Å” value ([1]; flavin site) was “Thal:FAD:AMP (PDB code 7CU1) were solved with two protomers per asymmetric unit (asu)”.
`I` [I^−] was tested, and the “stopped-flow fluorescence, C4a-hydroxyflavin formation” value [4] was “PrnA and PyrH could also react with I^− to form HOI and C4aOH-FAD”, the “stopped-flow fluorescence, C4a-hydroxyflavin formation” value [5] was “PrnA and PyrH could also react with I^− to form HOI and C4aOH-FAD” and the Kd [6] was 64 ± 21 µM.
`N[C@@H](Cc1c[nH]c2ccccc12)C(=O)O` [tryptophan] was tested, and the “X-ray crystal structure, 1.95 Å” value [7] was “we solved the structure of the Thal:TRP complex (PBD code 7CU0” and the multiple turnover halogenation [8] was “multiple turnover reactions of Thal were carried out and compared with the reactions of PrnA”.
